These results are taken from paper PMC11278660, “Molecular, Genetic, and Biochemical Characterization of OXA-484 Carbapenemase, a Difficult-to-Detect R214G Variant of OXA-181” (Microorganisms, 2024).

The structures appear in SMILES notation. Like-named read-outs stand apart in the source and are kept apart here.

The subject of test [1] is T1, OXA-484.
T1 construct: gene blaOXA-484; mature beta-lactamase AA20-265 in pET41b(+), expressed in E. coli BL21(DE3), purified; gene 798 bp; natural variant equal to OXA-181 with R214G
The experiment in a line: UV spectrophotometry, initial rates, Eadie-Hofstee plot. Type of test: biochemical, Escherichia coli. To be noted: 30 °C, 100 mM sodium phosphate, pH 7.0. An excerpt:
UV spectrophotometry, initial rates, Eadie-Hofstee plot on OXA-484

Test [2] deals with T1, OXA-484. The experiment in a line: inhibition of beta-lactam hydrolysis. In kind it is biochemical, Escherichia coli. The settings on record: reporter substrate not stated.

For `CC1(C)S[C@@H]2[C@H](NC(=O)[C@H](N)c3ccccc3)C(=O)N2[C@H]1C(=O)O` [Ampicillin], the Km in the test on OXA-484 [1] (read-out: Km (μM) / OXA-484) turned out to be 653 ± 72.2 µM.
The same measure, in the same setting: to `CC1(C)S[C@@H]2[C@H](NC(=O)Cc3ccccc3)C(=O)N2[C@H]1C(=O)O` [Benzylpenicillin] belongs 33 ± 1.9 µM; to `CC(=O)OCC1=C(C(=O)O)N2C(=O)[C@@H](NC(=O)Cc3cccs3)[C@H]2SC1` [Cefalotin], 37 ± 2.6 µM.
`CO/N=C(\C(=O)N[C@@H]1C(=O)N2C(C(=O)O)=C(COC(C)=O)CS[C@H]12)c1csc(N)n1` [Cefotaxime]: the Km in the test on OXA-484 [1] (read-out: Km (μM) / OXA-181) is more than 1000 µM.
Turning to `C[C@@H](O)[C@H]1C(=O)N2C(C(=O)O)=C(S[C@@H]3CN[C@H](C(=O)Nc4cccc(C(=O)O)c4)C3)[C@H](C)[C@H]12` [Ertapenem], in the test with OXA-484 [1] (read-out: Km (μM) / OXA-484), the Km is 27 ± 1.2 µM.
Same read-out and setting: to `C[C@@H](O)[C@H]1C(=O)N2C(C(=O)O)=C(SCCN=CN)C[C@H]12` [Imipenem] belongs 6 ± 2.1 µM.
On the same count and under the same terms, to `C[C@@H](O)[C@H]1C(=O)N2C(C(=O)O)=C(S[C@@H]3CN[C@H](C(=O)N(C)C)C3)[C@H](C)[C@H]12` [Meropenem] belongs 263 ± 9.4 µM.
Same read-out and setting: to `CO[C@@]1(NC(=O)C(C(=O)O)c2ccsc2)C(=O)N2[C@@H](C(=O)O)C(C)(C)S[C@@H]21` (stereo partly shown) [Temocillin] belongs 178 ± 25.1 µM.
On to `O=C(O)[C@H]1/C(=C/CO)O[C@@H]2CC(=O)N21` [clavulanic acid], for which it took 19 µM to reach half-maximal inhibition in the test on OXA-484 [2] (IC50).
As for `C[C@]1(Cn2ccnn2)[C@H](C(=O)O)N2C(=O)C[C@H]2S1(=O)=O` [tazobactam], the IC50 in the test on OXA-484 [2] was 1.09 µM.

One may read the IC50 as the concentration that gives 50% inhibition. Lower therefore signals greater potency in that assay.
